Results published in patent US20210246115A1 (Bioimics AB, priority 2017, published 2021).
Counter-ions that a name gives are not always drawn. Like-named read-outs stand apart in the source and are kept apart here.

What was measured:
[1] = test system: Staphylococcus aureus (ATCC25923); assay: MIC, broth microdilution (CLSI), Staphylococcus aureus ATCC25923; conditions: Staphylococcus aureus, ATCC25923, read-out: S. aureus ATCC 25923 MIC
[2] = test system: P. aeruginosa NTUH974 (MDR); assay: MIC, P. aeruginosa NTUH974 (MDR); type: cell-based; conditions: Pseudomonas aeruginosa, read-out: P. aeruginosa NTUH974 (MDR) MIC
[3] = test system: N. gonorrhoeae ATCC 700825; assay: MIC, N. gonorrhoeae ATCC 700825; type: cell-based; conditions: Neisseria gonorrhoeae, ATCC700825; Table XIV B. Gram-negative bacteria
[4] = test system: E. coli RNase P RNA, M1 RNA; assay: Inhibition of bacterial RNase P activity, IC50 determination (cleavage of pATSerUG by M1 RNA); type: biochemical; conditions: NI: No inhibition
K. pneumoniae ATCC 43816 = assay: MIC, K. pneumoniae ATCC 43816; type: cell-based; conditions: Klebsiella pneumoniae, ATCC43816; Table XIV B. Gram-negative bacteria
A. baumannii ATCC 17978 = assay: MIC, A. baumannii ATCC 17978; type: cell-based; conditions: Acinetobacter baumannii, ATCC17978; Table XIV B. Gram-negative bacteria
[5] = test system: E. coli JW5503 (efflux defective); assay: MIC, E. coli JW5503 (efflux defective); type: cell-based; conditions: Escherichia coli, read-out: E. coli JW5503 (efflux defective) MIC
[6] = test system: S. aureus MRSA ATCC 33591; assay: MIC, S. aureus MRSA ATCC 33591; type: cell-based; conditions: Staphylococcus aureus, read-out: S. aureus MRSA ATCC 33591 MIC
[7] = test system: Staphylococcus aureus subsp. aureus (ATCC29213); assay: MIC, broth microdilution (CLSI), Staphylococcus aureus ATCC29213; type: cell-based; conditions: Staphylococcus aureus
[8] = test system: Enterococcus faecalis (ATCC29212); assay: MIC, broth microdilution (CLSI), Enterococcus faecalis; type: cell-based
[9] = test system: Escherichia coli (ATCC25922); assay: MIC, broth microdilution (CLSI), Escherichia coli; conditions: Escherichia coli
S. pneumoniae ATCC 49619 = assay: MIC, S. pneumoniae ATCC 49619; type: cell-based; conditions: Streptococcus pneumoniae, ATCC49619; Table XIV A. Gram-positive bacteria
E. faecium ATCC 700221 = assay: MIC, E. faecium ATCC 700221; type: cell-based; conditions: Enterococcus faecium
[10] = test system: Pseudomonas aeruginosa (ATCC27853); assay: MIC, broth microdilution (CLSI), Pseudomonas aeruginosa; type: cell-based
H. influenzae ATCC 49247 = assay: MIC, H. influenzae ATCC 49247; type: cell-based; conditions: Haemophilus influenzae, ATCC49247; Table XIV B. Gram-negative bacteria
[11] = ATCC29213, read-out: S. aureus ATCC 29213 MIC, Table XIV A. Gram-positive bacteria
[12] = ATCC29212, read-out: E. faecalis ATCC 29212 MIC
[13] = ATCC25922, read-out: E. coli ATCC 25922 MIC, Table XIII
[14] = ATCC25922, read-out: E. coli ATCC 25922 MIC, Table XIV B. Gram-negative bacteria
[15] = ATCC700221, read-out: E. faecium ATCC 700221 MIC
[16] = ATCC27853, read-out: P. aeruginosa ATCC 27853 MIC
[17] = Table XIV B. Gram-negative bacteria
[18] = Table XIV A. Gram-positive bacteria
[19] = ATCC29213, Table XIV A. Gram-positive bacteria, read-out: S. aureus ATCC 29213 MIC
[20] = ATCC29212, Table XIV A. Gram-positive bacteria, read-out: E. faecalis ATCC 29212 MIC
[21] = ATCC700221, Table XIV A. Gram-positive bacteria, read-out: E. faecium ATCC 700221 MIC
[22] = ATCC27853, Table XIV B. Gram-negative bacteria, read-out: P. aeruginosa ATCC 27853 MIC
[23] = ATCC29213, Table XIII, read-out: S. aureus ATCC 29213 MIC
[24] = ATCC29213, read-out: S. aureus ATCC 29213 MIC, Table XIII

Row | MIC [7, 23] [µg/mL] | SMILES | MIC [1] [µg/mL] | MIC [3] [µg/mL] | IC50 [4] [µM] | MIC (K. pneumoniae ATCC 43816) [µg/mL] | MIC (A. baumannii ATCC 17978) [µg/mL] | MIC [5] [µg/mL] | MIC [9, 13] [µg/mL] | MIC [9, 14] [µg/mL] | MIC (S. pneumoniae ATCC 49619) [µg/mL] | MIC (H. influenzae ATCC 49247) [µg/mL] | other results
1 | – | NC1CCC(NC(=O)CC(c2cccc(OC(F)(F)F)c2)c2cn(CC3CCCCC3)c3ccccc23)CC1 [Compound 143, N-((1S,4S)-4-aminocyclohexyl)-3-(1-(cyclohexylmethyl)-1H-indol-3-yl)-3-(3-(trifluoromethoxy)phenyl) propanamide hydrochloride salt] | 2 | 2 | 20 | > 128 | > 128 | 64 | > 512 | > 128 | 16 | 16 | MIC [2]: > 128 µg/mL; MIC [6]: 16 µg/mL; MIC [7, 11]: 4 µg/mL; MIC [8, 12]: 4 µg/mL; MIC (E. faecium ATCC 700221; [15]): 4 µg/mL; MIC [10, 16]: > 128 µg/mL
2 | – | Cc1cccc(C(CC(=O)Nc2ccc(CN)cc2)c2cn(CC3CCCCC3)c3ccccc23)c1.Cl (stereo not shown) [Compound 139, N-(4-(aminomethyl)phenyl)-3-(1-(cyclohexylmethyl)-1H-indol-3-yl)-3-(m-tolyl)propanamide hydrochloride salt] | 2 | 2 | 46 | > 128 | > 128 | 32 | > 512 | > 128 | 16 | 16 | MIC [2, 17]: > 128 µg/mL; MIC [6, 18]: 8 µg/mL; MIC [7, 19]: 4 µg/mL; MIC [8, 20]: 4 µg/mL; MIC (E. faecium ATCC 700221; [21]): 4 µg/mL; MIC [10, 22]: > 128 µg/mL
3 | – | NC1CCC(NCCC(c2cccc(Cl)c2)c2cn(CC3CCCCC3)c3ccccc23)CC1 [Compound 170, (1S,4S)-N1-(3-(3-chlorophenyl)-3-(1-(cyclohexylmethyl)-1H-indol-3-yl)propyl) cyclohexane-1,4-diamine hydrochloride salt] | 2 | 2 | 16 | 8 | 4 | 2 | 4 | 4 | 8 | 4 | MIC [2, 17]: 32 µg/mL; MIC [6, 18]: 4 µg/mL; MIC [7, 19]: 2 µg/mL; MIC [8, 20]: 2 µg/mL; MIC (E. faecium ATCC 700221; [21]): 2 µg/mL; MIC [10, 22]: 16 µg/mL
4 | 8 | Cl.N[C@H]1CC[C@H](NC(=O)CC(c2cncc3ccccc23)c2cn(CC3CCCCC3)c3ccccc23)CC1 (stereo partly drawn) [Compound 191, N-((1R,4R)-4-aminocyclohexyl)-3-(1-(cyclohexylmethyl)-1H-indol-3-yl)-3-(isoquinolin-4-yl)propanamide hydrochloride salt] | 5 | – | 7 | – | – | – | 8 | – | – | – | –
5 | – | Cc1cccc(C(CCN2CCC(N)CC2)c2cn(CC3CCCCC3)c3ccccc23)c1 (stereo not shown) [Compound 216, 1-(3-(1-(cyclohexylmethyl)-1H-indol-3-yl)-3-(m-tolyl)propyl)piperidin-4-amine hydrochloride salt] | 4 | 2 | 25 | 128 | 8 | 4 | 4 | 8 | 8 | 4 | MIC [2]: 64 µg/mL; MIC [6]: 4 µg/mL; MIC [7, 11]: 4 µg/mL; MIC [8, 12]: 4 µg/mL; MIC (E. faecium ATCC 700221; [15]): 2 µg/mL; MIC [10, 16]: 64 µg/mL
6 | – | Cc1cccc(C(CCNC2CCNCC2)c2cn(CC3CCOCC3)c3ccc(Br)cc23)c1 (stereo not shown) [Compound 293, N-(3-(5-bromo-1-((tetrahydro-2H-pyran-4-yl)methyl)-1H-indol-3-yl)-3-(m-tolyl)propyl) piperidin-4-amine hydrochloride salt] | 5 | – | 70 | – | – | – | 4 | – | – | – | MIC [7, 24]: 8 µg/mL
7 | 32 | Cc1cccc(C(CC(=O)NC2CCNCC2)c2cn(CC3CCCCC3)c3ccc(C(=O)O)cc23)c1.Cl (stereo not shown) [Compound 297, 1-(cyclohexylmethyl)-3-(3-oxo-3-(piperidin-4-ylamino)-1-(m-tolyl)propyl)-1H-indole-5-carboxylic acid hydrochloride salt] | 34 | – | 38 | – | – | – | > 128 | – | – | – | –
8 | – | Cc1ccccc1C(CCNC1CCC(N)CC1)c1cn(CC2CCCCC2)c2ccccc12 (stereo not shown) [Compound 186, N1-(3-(1-(cyclohexylmethyl)-1H-indol-3-yl)-3-(o-tolyl)propyl)cyclohexane-1,4-diamine hydrochloride salt] | 4 | 2 | 3.6 | 8 | 4 | 2 | 4 | 4 | 8 | 8 | MIC [2]: 32 µg/mL; MIC [6]: 4 µg/mL; MIC [7, 24]: 4 µg/mL; MIC [7, 11]: 4 µg/mL; MIC [8, 12]: 4 µg/mL; MIC (E. faecium ATCC 700221; [15]): 2 µg/mL; MIC [10, 16]: 16 µg/mL
9 | 64 | Cc1cccc(C(CCNCC2CNCCO2)c2cn(CC3CCCCC3)c3ccc(Br)cc23)c1.Cl (stereo not shown) [Compound 289, 3-(5-bromo-1-(cyclohexylmethyl)-1H-indol-3-yl)-N-(morpholin-2-ylmethyl)-3-(m-tolyl)propan-1-amine hydrochloride salt] | 2 | – | 15 | – | – | – | 16 | – | – | – | –
10 | 4 | Cc1cccc(C(CC(=O)NC2CCNCC2)c2cn(CCC3CCCCC3)c3ccccc23)c1.Cl (stereo not shown) [Compound 109, 3-(1-(2-cyclohexylethyl)-1H-indol-3-yl)-N-(piperidin-4-yl)-3-(m-tolyl)propanamide hydrochloride salt] | 4 | – | 3.7 | – | – | – | 128 | – | – | – | –
11 | 2 | NC1CCC(NCCC(c2ccc(F)c(F)c2)c2cn(CC3CCCCC3)c3ccccc23)CC1 [Compound 161, (1S,4S)-N1-(3-(1-(cyclohexylmethyl)-1H-indol-3-yl)-3-(3,4-difluorophenyl)propyl) cyclohexane-1,4-diamine hydrochloride salt] | 2 | – | 12 | – | – | – | 2 | – | – | – | –
12 | 8 | Cc1cccc(C(CCN[C@H]2CC[C@H](N)CC2)c2cn(CC3CCCC3)c3ccccc23)c1 (stereo partly drawn) [Compound 164, (1R,4R)-N1-(3-(1-(cyclopentylmethyl)-1H-indol-3-yl)-3-(m-tolyl)propyl)cyclohexane-1,4-diamine hydrochloride salt] | 4 | – | 9.6 | – | – | – | 8 | – | – | – | –
13 | > 128 | Cl.O=C(CCC1C(=O)N(CC2CCCCC2)c2ccccc21)NC1CCNCC1 (stereo not shown) [Compound 275, 3-(1-(cyclohexylmethyl)-2-oxoindolin-3-yl)-N-(piperidin-4-yl) propanamide hydrochloride salt] | > 512 | – | 79 | – | – | – | > 128 | – | – | – | –
14 | – | Cc1cccc(C(CCNCC2CNCCO2)c2cn(CC3CCCCC3)c3ccccc23)c1 (stereo not shown) [Compound 288, 3-(1-(cyclohexylmethyl)-1H-indol-3-yl)-N-(morpholin-2-ylmethyl)-3-(m-tolyl)propan-1-amine hydrochloride salt] | 4 | – | 52 | – | – | – | 4 | – | – | – | MIC [7, 24]: 128 µg/mL

Row | SMILES | MIC [7, 23] [µg/mL] | MIC [1] [µg/mL] | MIC [3] [µg/mL] | IC50 [4] [µM] | MIC (K. pneumoniae ATCC 43816) [µg/mL] | MIC (A. baumannii ATCC 17978) [µg/mL] | MIC [5] [µg/mL] | MIC [9, 13] [µg/mL] | MIC [9, 14] [µg/mL] | MIC (S. pneumoniae ATCC 49619) [µg/mL] | MIC (H. influenzae ATCC 49247) [µg/mL] | other results
15 | Cc1cccc(C(CCNC2CCCCC2)c2cn(CC3CCCCC3)c3ccccc23)c1.Cl (stereo not shown) [Compound 215, N-(3-(1-(cyclohexylmethyl)-1H-indol-3-yl)-3-(m-tolyl)propyl) cyclohexanamine hydrochloride salt] | 2 | 2 | 1 | – | > 128 | > 128 | 64 | > 128 | > 128 | 2 | 16 | MIC [2, 17]: > 128 µg/mL; MIC [6, 18]: > 128 µg/mL; MIC [7, 19]: 2 µg/mL; MIC [8, 20]: 2 µg/mL; MIC (E. faecium ATCC 700221; [21]): 1 µg/mL; MIC [10, 22]: > 128 µg/mL
